Test results published in US4468511A, “C-20- And C-23-Modified macrolide derivatives” (Eli Lilly and Company, priority 1983, dated 1984).
≈ marks a conversion by molar mass, not a printed value. Where two headings read alike, the source gives them in different places.

Key:
Format in all cases: cell-based
[1] = test system: Staphylococcus aureus S13E; assay: microbe, parasite or virus in culture
Description: (§1) The MIC's in Table II were determined by standard agar-dilution assays. The MIC's in Table III were obtained using a conventional broth-dilution microtiter test.

[2] = test system: Staphylococcus epidermidis EPI1; assay: microbe, parasite or virus in culture
Description: as §1

[3] = test system: Haemophilus influenzae C.L.; assay: MIC, standard agar-dilution assay
Description: as §1

[4] = test system: Staphylococcus epidermidis EPI2; assay: MIC, standard agar-dilution assay
Description: as §1

[5] = test system: Haemophilus influenzae 76; assay: MIC, standard agar-dilution assay
Description: as §1

[6] = test system: Staphylococcus aureus X400; assay: MIC, standard agar-dilution assay; conditions: Staphylococcus aureus, X400
Description: as §1

[7] = test system: Pasteurella hemolytica 22C; assay: MIC, conventional broth-dilution microtiter test; conditions: broth-dilution microtiter; Pasteurella hemolytica 22C; read-out: MIC
Description: (§2) Certain of the derivatives are active against some gram-negative bacteria, such as Pasteurella species. The MIC's in Table II were determined by standard agar-dilution assays. The MIC's in Table III were obtained using a conventional broth-dilution microtiter test.

[8] = test system: Streptococcus sp. 80; assay: MIC, conventional broth-dilution microtiter test; conditions: broth-dilution microtiter; Streptococcus sp. 80; read-out: MIC
Description: as §2

[9] = test system: Pasteurella multocida 68C; assay: MIC, conventional broth-dilution microtiter test; conditions: broth-dilution microtiter; Pasteurella multocida 68C; read-out: MIC
Description: as §2

[10] = test system: Pasteurella multocida 40G; assay: MIC, conventional broth-dilution microtiter test; conditions: broth-dilution microtiter; Pasteurella multocida 40G; read-out: MIC
Description: as §2

[11] = test system: Pasteurella multocida 22A; assay: MIC, conventional broth-dilution microtiter test; conditions: broth-dilution microtiter; Pasteurella multocida 22A; read-out: MIC
Description: as §2

[12] = test system: Mycoplasma hyorhinis; assay: MIC, conventional broth-dilution microtiter test; conditions: broth-dilution microtiter; Mycoplasma hyorhinis; read-out: MIC
Description: as §2

[13] = test system: Mycoplasma gallisepticum 34159; assay: MIC, conventional broth-dilution microtiter test; conditions: Mycoplasmoides gallisepticum; broth-dilution microtiter; Mycoplasma gallisepticum 34159, Resistant strain; read-out: MIC
Description: as §2

[14] = test system: Staphylococcus aureus; assay: MIC, conventional broth-dilution microtiter test; conditions: broth-dilution microtiter, read-out: MIC
Description: as §2

[15] = test system: Pasteurella hemolytica 23C; assay: MIC, conventional broth-dilution microtiter test; conditions: broth-dilution microtiter; Pasteurella hemolytica 23C; read-out: MIC
Description: as §2

[16] = test system: Pasteurella multocida 60A; assay: MIC, conventional broth-dilution microtiter test; conditions: broth-dilution microtiter; Pasteurella multocida 60A, Avian isolate; read-out: MIC
Description: as §2

[17] = test system: Mycoplasma gallisepticum; assay: MIC, conventional broth-dilution microtiter test; conditions: Mycoplasmoides gallisepticum
Description: as §2

[18] = test system: Mycoplasma gallisepticum 41313; assay: MIC, conventional broth-dilution microtiter test; conditions: Mycoplasmoides gallisepticum; broth-dilution microtiter; Mycoplasma gallisepticum 41313, Resistant strain; read-out: MIC
Description: as §2

[19] = test system: Pasteurella hemolytica 41D; assay: MIC, conventional broth-dilution microtiter test; conditions: broth-dilution microtiter; Pasteurella hemolytica 41D; read-out: MIC
Description: as §2

[20] = test system: Pasteurella multocida 17E; assay: MIC, conventional broth-dilution microtiter test; conditions: broth-dilution microtiter; Pasteurella multocida 17E, Bovine isolate; read-out: MIC
Description: as §2

[21] = test system: Streptococcus Group D X66; assay: MIC, standard agar-dilution assay
Description: as §2

[22] = test system: Escherichia coli EC14; assay: MIC, standard agar-dilution assay; conditions: agar-dilution; Escherichia coli EC14; read-out: MIC
Description: as §2

[23] = test system: Streptococcus pyogenes 9960; assay: MIC, standard agar-dilution assay
Description: as §2

[24] = test system: Klebsiella pneumoniae KAE; assay: MIC, standard agar-dilution assay; conditions: agar-dilution; Klebsiella pneumoniae KAE; read-out: MIC
Description: as §2

[25] = test system: Staphylococcus aureus X1.1; assay: MIC, standard agar-dilution assay
Description: as §2

[26] = test system: Klebsiella pneumoniae X26; assay: MIC, standard agar-dilution assay
Description: as §2

[27] = test system: Escherichia coli TEM; assay: MIC, standard agar-dilution assay
Description: as §2

[28] = test system: Streptococcus pneumoniae Park I; assay: MIC, standard agar-dilution assay
Description: as §2

[29] = test system: Staphylococcus aureus V41; assay: MIC, standard agar-dilution assay; conditions: Staphylococcus aureus, V41
Description: as §2

[30] = test system: Streptococcus pyogenes C203; assay: MIC, standard agar-dilution assay; conditions: agar-dilution; Streptococcus pyogenes C203; read-out: MIC
Description: as §2

[31] = Staphylococcus epidermidis, EPI1
[32] = agar-dilution, Staphylococcus epidermidis EPI2, read-out: MIC
[33] = agar-dilution, Klebsiella pneumoniae X26, read-out: MIC
[34] = agar-dilution, Streptococcus pneumoniae Park I, read-out: MIC
[35] = agar-dilution, Streptococcus Group D X66, read-out: MIC
[36] = agar-dilution, Streptococcus 9960, read-out: MIC
[37] = agar-dilution, Escherichia coli TEM, read-out: MIC

Row | SMILES | MIC [1] | MIC [2, 31] | MIC ([3]; Haemophilus influenzae) | MIC [6] | MIC [7] | MIC [8] | MIC [9] | MIC [10] | MIC [11] | MIC [12] | MIC [13] | MIC [14] | MIC [15] | MIC [16] | MIC [18] | MIC [19] | MIC [20] | MIC [22] | MIC [24] | MIC [29] | also measured
1 | CCC1OC(=O)CC(O)C(C)C(OC2OC(C)C(O)C(N(C)C)C2O)C(CCN2C(=O)c3ccccc3C2=O)CC(C)C(=O)C=CC(C)=CC1CO (stereo not shown) [Compound 6, 20-N-Phthalimido-20-deoxy-20-dihydro-OMT] | 8 µg/mL (≈ 11 µM) | 4 µg/mL (≈ 5.49 µM) | 64 µg/mL (≈ 87.8 µM) | 16 µg/mL (≈ 22 µM) | 50 µg/mL (≈ 68.6 µM) | 3.12 µg/mL (≈ 4.28 µM) | 25 µg/mL (≈ 34.3 µM) | 50 µg/mL (≈ 68.6 µM) | 50 µg/mL (≈ 68.6 µM) | 50 µg/mL (≈ 68.6 µM) | 50 µg/mL (≈ 68.6 µM) | 25 µg/mL (≈ 34.3 µM) | 50 µg/mL (≈ 68.6 µM) | 50 µg/mL (≈ 68.6 µM) | 50 µg/mL (≈ 68.6 µM) | 50 µg/mL (≈ 68.6 µM) | 50 µg/mL (≈ 68.6 µM) | > 128 µg/mL | > 128 µg/mL | 8 µg/mL (≈ 11 µM) | MIC [4, 32]: 2 µg/mL (≈ 2.74 µM); MIC ([5]; Haemophilus influenzae, 76): 64 µg/mL (≈ 87.8 µM); MIC ([17]; broth-dilution microtiter, Mycoplasma gallisepticum, read-out: MIC): 3.12 µg/mL (≈ 4.28 µM); MIC [21]: 16 µg/mL (≈ 22 µM); MIC [23]; 9960: 16 µg/mL (≈ 22 µM); MIC ([25]; agar-dilution, Staphylococcus aureus X1.1, read-out: MIC): 4 µg/mL (≈ 5.49 µM); MIC [26, 33]: 16 µg/mL (≈ 22 µM); MIC ([27]; Escherichia coli): 64 µg/mL (≈ 87.8 µM); MIC [28, 34]: 2 µg/mL (≈ 2.74 µM)
2 | CCC1OC(=O)CC(O)C(C)C(OC2OC(C)C(OC3CC(C)(O)C(O)C(C)O3)C(N(C)C)C2O)C(CCN2C(=O)c3ccccc3C2=O)CC(C)C(=O)C=CC(C)=CC1CO (stereo not shown) [Compound 17, 20-N-Phthalimido-20-deoxy-20-dihydro-DMT] | 64 µg/mL (≈ 73.3 µM) |  |  | 64 µg/mL (≈ 73.3 µM) | > 50 µg/mL | 50 µg/mL (≈ 57.3 µM) | > 50 µg/mL | > 50 µg/mL | > 50 µg/mL | 50 µg/mL (≈ 57.3 µM) | 50 µg/mL (≈ 57.3 µM) | > 50 µg/mL | > 50 µg/mL | > 50 µg/mL | 50 µg/mL (≈ 57.3 µM) | > 50 µg/mL | > 50 µg/mL | > 128 µg/mL | > 128 µg/mL | 64 µg/mL (≈ 73.3 µM) | MIC ([2]; agar-dilution, Staphylococcus epidermidis EPI1, read-out: MIC): 32 µg/mL (≈ 36.7 µM); MIC ([3]; agar-dilution, Haemophilus influenzae C.L., Ampicillin-sensitive strain, read-out: MIC): > 128 µg/mL; MIC [4, 32]: 32 µg/mL (≈ 36.7 µM); MIC ([5]; agar-dilution, Haemophilus influenzae 76, Ampicillin-resistant strain, read-out: MIC): > 128 µg/mL; MIC [17]: 12.5 µg/mL (≈ 14.3 µM); MIC [21, 35]: > 128 µg/mL; MIC [30]: 128 µg/mL (≈ 147 µM); MIC [23, 36]: > 128 µg/mL; MIC ([25]; Staphylococcus aureus, X1.1): 64 µg/mL (≈ 73.3 µM); MIC [26, 33]: > 128 µg/mL; MIC [27, 37]: > 128 µg/mL; MIC [28, 34]: 16 µg/mL (≈ 18.3 µM)
3 | CCC1OC(=O)CC(O)C(C)C(OC2OC(C)C(O)C(N(C)C)C2O)C(CCN2C(=O)c3ccccc3C2=O)CC(C)C(=O)C=CC(C)=CC1C (stereo not shown) [Compound 22, 20-N-Phthalimido-20-deoxy-20-dihydro-DOMT] | 8 µg/mL (≈ 11.2 µM) | 8 µg/mL (≈ 11.2 µM) | 128 µg/mL (≈ 180 µM) | 32 µg/mL (≈ 44.9 µM) | 50 µg/mL (≈ 70.1 µM) | 6.25 µg/mL (≈ 8.77 µM) | 25 µg/mL (≈ 35.1 µM) | 50 µg/mL (≈ 70.1 µM) | 50 µg/mL (≈ 70.1 µM) | 25 µg/mL (≈ 35.1 µM) | 50 µg/mL (≈ 70.1 µM) | 25 µg/mL (≈ 35.1 µM) | 50 µg/mL (≈ 70.1 µM) | 50 µg/mL (≈ 70.1 µM) | 50 µg/mL (≈ 70.1 µM) | 50 µg/mL (≈ 70.1 µM) | 50 µg/mL (≈ 70.1 µM) | > 128 µg/mL | > 128 µg/mL | 8 µg/mL (≈ 11.2 µM) | MIC ([4]; Staphylococcus epidermidis, EPI2): 4 µg/mL (≈ 5.61 µM); MIC ([5]; Haemophilus influenzae, 76): 128 µg/mL (≈ 180 µM); MIC [17]: 0.78 µg/mL (≈ 1.09 µM); MIC [21, 35]: 16 µg/mL (≈ 22.4 µM); MIC [23, 36]: 16 µg/mL (≈ 22.4 µM); MIC ([25]; Staphylococcus aureus, X1.1): 8 µg/mL (≈ 11.2 µM); MIC ([26]; Klebsiella pneumoniae, X26): 32 µg/mL (≈ 44.9 µM); MIC [27, 37]: 128 µg/mL (≈ 180 µM); MIC ([28]; Streptococcus pneumoniae): 4 µg/mL (≈ 5.61 µM)
